Measured values from US20180099931A1 (AbbVie S.à.r.l., priority 2016, published 2018).
Read-outs that look alike come from different tables or passages of the source.

Target: T1, F508delCFTR (Homo sapiens, UniProt P13569, DEL508-508)
T1 construct: expressed in transfected cells; host or cells: CFBE41o- human lung-derived epithelial cells (CFBE4lo-F508delCFTR-HRP), doxycycline-inducible
Test: Cell Surface Expression-Horse Radish Peroxidase (CSE-HRP) Assay;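 as to Maximum % activity (with co-corrector): co-corrector and positive control are both the same reference corrector at 2 µM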;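 as to Maximum % activity (without co-corrector): percent of the 2 µM on-plate positive control corrector response above DMSO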
Format: cell-based
Settings: for Maximum % activity (with co-corrector): with co-corrector (2 μM); for Maximum % activity (with co-corrector) / Emax: maximum at any tested concentration, normalized to on-plate positive control; for Emax: without co-corrector, read-out: Maximum % activity (without co-corrector)

[1] = test compound without co-corrector, read-out: EC50 (without co-corrector)
[2] = with co-corrector (2 μM of 3-[(2R,4R)-4-({[1-(2,2-difluoro-1,3-benzodioxol-5-yl)cyclopropyl]carbonyl}amino)-7-methoxy-3,4-dihydro-2H-chromen-2-yl]benzoic acid), read-out: EC50 (with co-corrector)

T1 sequence (P13569 with tags, fused parts or gaps DEL508-508): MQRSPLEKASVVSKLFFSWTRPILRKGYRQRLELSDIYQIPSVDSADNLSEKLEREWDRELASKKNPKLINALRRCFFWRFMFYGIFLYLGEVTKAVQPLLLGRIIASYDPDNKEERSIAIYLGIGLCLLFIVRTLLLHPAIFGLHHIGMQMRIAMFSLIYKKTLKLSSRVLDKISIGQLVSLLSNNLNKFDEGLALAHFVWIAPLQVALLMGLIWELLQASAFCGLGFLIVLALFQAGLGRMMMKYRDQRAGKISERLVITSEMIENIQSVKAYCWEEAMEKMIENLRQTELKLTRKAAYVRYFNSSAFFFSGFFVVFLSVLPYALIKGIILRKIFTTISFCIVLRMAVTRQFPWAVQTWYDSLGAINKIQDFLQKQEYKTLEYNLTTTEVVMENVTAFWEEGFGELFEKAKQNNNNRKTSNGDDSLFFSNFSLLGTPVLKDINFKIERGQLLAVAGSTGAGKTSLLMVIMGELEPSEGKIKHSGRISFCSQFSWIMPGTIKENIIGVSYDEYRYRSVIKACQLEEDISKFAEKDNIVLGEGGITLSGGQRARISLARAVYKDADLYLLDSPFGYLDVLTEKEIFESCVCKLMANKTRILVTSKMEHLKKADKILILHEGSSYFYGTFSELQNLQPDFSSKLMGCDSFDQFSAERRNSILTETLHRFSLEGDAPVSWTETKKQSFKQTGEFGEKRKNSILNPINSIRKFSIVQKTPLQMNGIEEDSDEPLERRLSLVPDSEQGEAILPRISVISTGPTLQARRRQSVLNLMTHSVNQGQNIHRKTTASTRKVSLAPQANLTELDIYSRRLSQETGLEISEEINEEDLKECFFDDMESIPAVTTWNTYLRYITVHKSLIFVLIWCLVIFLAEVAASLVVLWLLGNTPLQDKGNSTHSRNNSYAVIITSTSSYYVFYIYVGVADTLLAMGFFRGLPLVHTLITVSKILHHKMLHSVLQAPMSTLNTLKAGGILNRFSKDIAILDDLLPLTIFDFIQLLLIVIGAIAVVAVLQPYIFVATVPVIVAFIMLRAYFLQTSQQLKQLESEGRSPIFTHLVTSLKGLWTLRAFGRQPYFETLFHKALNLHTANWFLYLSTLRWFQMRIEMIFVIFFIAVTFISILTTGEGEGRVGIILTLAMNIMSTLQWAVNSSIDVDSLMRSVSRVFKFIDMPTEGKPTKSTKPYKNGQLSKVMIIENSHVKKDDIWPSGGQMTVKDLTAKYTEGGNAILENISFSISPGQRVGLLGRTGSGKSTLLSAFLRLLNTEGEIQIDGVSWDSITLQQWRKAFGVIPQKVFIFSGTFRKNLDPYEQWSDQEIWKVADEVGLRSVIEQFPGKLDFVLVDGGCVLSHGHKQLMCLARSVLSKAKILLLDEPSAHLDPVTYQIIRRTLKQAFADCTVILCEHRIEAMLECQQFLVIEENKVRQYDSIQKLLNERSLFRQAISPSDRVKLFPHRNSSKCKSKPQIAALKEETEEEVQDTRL

| Structure (SMILES) | EC50 [1] [nM] | EC50 [2] [nM] | Maximum % activity (with co-corrector) | Emax [%] |
| --- | --- | --- | --- | --- |
| COc1ccc(C2(C)CCC2)cc1CN[C@H]1[C@H](C(C)(C)C)[C@@H](C(=O)O)N(C(=O)OC(C)C)[C@H]1c1cccnc1N(C)C [Example 80, (2S,3S,4S,5S)-3-tert-butyl-5-[2-(dimethylamino)pyridin-3-yl]-4-({[2-methoxy-5-(1-methylcyclobutyl)phenyl]methyl}amino)-1-{[(propan-2-yl)oxy]carbonyl}pyrrolidine-2-carboxylic acid] | 1000 to 10000 | 1000 to 10000 | +++ (≥350) | > 200 |
| COc1cc(C(F)(F)F)ccc1CN[C@H]1[C@H](C(C)(C)C)[C@@H](C(=O)O)N(C(=O)OC(C)C)[C@H]1c1cccnc1OC(C)C [Example 81, (2S,3S,4S,5S)-3-tert-butyl-4-({[2-methoxy-4-(trifluoromethyl)phenyl]methyl}amino)-1-{[(propan-2-yl)oxy]carbonyl}-5-{2-[(propan-2-yl)oxy]pyridin-3-yl}pyrrolidine-2-carboxylic acid] | 1000 to 10000 | 1000 to 10000 | +++ (≥350) | 100 to 200 |
| Cc1cc(C(F)(F)F)cc(N[C@H]2[C@H](C(C)(C)C)[C@@H](C(=O)O)N(C(=O)OC(C)C)[C@H]2c2ccccc2C(C)C)n1 [Example 82, (2S,3S,4S,5S)-3-tert-butyl-4-{[6-methyl-4-(trifluoromethyl)pyridin-2-yl]amino}-1-{[(propan-2-yl)oxy]carbonyl}-5-[2-(propan-2-yl)phenyl]pyrrolidine-2-carboxylic acid] | 1000 to 10000 | 1000 to 10000 | ++ (≥150 and <350) | < 100 |
| COc1ccc(C(F)(F)F)cc1CN[C@H]1[C@H](C(C)(C)C)[C@@H](C(=O)O)N(C(=O)OC(C)C)[C@H]1c1ccccc1C(C)C [Example 83, (2S,3S,4S,5S)-3-tert-butyl-4-({[2-methoxy-5-(trifluoromethyl)phenyl]methyl}amino)-1-{[(propan-2-yl)oxy]carbonyl}-5-[2-(propan-2-yl)phenyl]pyrrolidine-2-carboxylic acid] | 1000 to 10000 | < 1000 | +++ (≥350) | > 200 |
| COc1ncc(C(F)(F)F)cc1CN[C@H]1[C@H](C(C)(C)C)[C@@H](C(=O)O)N(C(=O)[C@@H]2CCCCO2)[C@H]1c1ccccc1C(C)C [Example 84, (2S,3S,4S,5S)-3-tert-butyl-4-({[2-methoxy-5-(trifluoromethyl)pyridin-3-yl]methyl}amino)-1-[(2S)-oxane-2-carbonyl]-5-[2-(propan-2-yl)phenyl]pyrrolidine-2-carboxylic acid] | < 1000 | < 1000 | +++ (≥350) | > 200 |
| COc1ncc(C(F)(F)F)cc1CN[C@H]1[C@H](C(C)(C)C)[C@@H](C(=O)O)N(C(=O)[C@H]2CCCCO2)[C@H]1c1ccccc1C(C)C [Example 85, (2S,3S,4S,5S)-3-tert-butyl-4-({[2-methoxy-5-(trifluoromethyl)pyridin-3-yl]methyl}amino)-1-[(2R)-oxane-2-carbonyl]-5-[2-(propan-2-yl)phenyl]pyrrolidine-2-carboxylic acid] | 1000 to 10000 | < 1000 | +++ (≥350) | > 200 |
| COc1ccc(C(C)(C)C)cc1CN[C@H]1[C@H](C(C)(C)C)[C@@H](C(=O)O)N(C(=O)OC(C)C)[C@H]1c1cccc(Cl)c1 [Example 86, (2S,3S,4S,5S)-3-tert-butyl-4-{[(5-tert-butyl-2-methoxyphenyl)methyl]amino}-5-(3-chlorophenyl)-1-{[(propan-2-yl)oxy]carbonyl}pyrrolidine-2-carboxylic acid] | 1000 to 10000 | < 1000 | +++ (≥350) | > 200 |
